Source: publication PMC12302229, “Synergy of triazolyl substituents at C1 and C3 of galactose for high-affinity and selective galectin-4C inhibition” (RSC Chemical Biology, 2025)

How the values were obtained:
galectin-1 = biological target: T1, galectin-1 (Homo sapiens, UniProt P09382); experiment: competitive fluorescence polarization assay, galectin-1; format: binding; conditions: fluorescence polarization; Kd and SEM from 3–6 single point measurements; read-out: Dissociation constants, Galectin-1
T1 construct: made in house
T1 sequence (P09382 whole entry): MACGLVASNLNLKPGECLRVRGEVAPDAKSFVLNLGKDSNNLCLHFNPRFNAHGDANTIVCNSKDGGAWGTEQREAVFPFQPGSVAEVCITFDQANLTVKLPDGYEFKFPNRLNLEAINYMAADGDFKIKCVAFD
Protocol: (§1) Affinities of 1c–1z for galectin-1, -3, -4C, -4N, -7, -8C, -8N, -9C, and -9N were measured using an established fluorescence polarization assay[57] with reported probes and conditions.[19] […]
(§2) Fluorescence polarization experiments
(§3) Human galectin-11 and galectin-32 were expressed and purified as earlier described. Fluorescence polarization experiments were performed on a PheraStarFS plate reader with software PHERAstar Mars version 2.10 R3 (BMG, Offenburg, Germany). Specific experimental conditions were a galectin-1 concentration of 0.5 µM together with the fluorescent probe (3,3’-dideoxy-3-[4-(fluorescein-5-yl-carbonylaminomethyl)-1H-1,2,3-triazol-1-yl]-3’-(3,5-di-methoxybenzamido)-1,1’-sulfanediyl-di-β-D-galactopyranoside 1 concentration of 20 nM and a galectin-3 concentration of 0.2 µM together with the fluorescent probe (3,3’-dideoxy-3-[4-(fluorescein-5-yl-carbonylaminomethyl)-1H-1,2,3- […]
(§4) triazol-1-yl]-3’-(3,5-di-methoxybenzamido)-1,1’-sulfanediyl-di-β-D-galactopyranoside) concentration of 20 nM, respectively. Inhibitors were dissolved in dimethylsulfoxide (analytical grade) to a concentration of 20 mM, diluted with PBS to 3–6 different concentrations, and tested in duplicate twice for galectin affinity using a competitive fluorescence polarization assay as earlier described.3 The highest inhibitor concentrations tested were 1 mM due to solubility limitations at higher concentration. Dissociation constants average and SEM were calculated from two to eight single point measurements showing between 20–80% inhibition. […]

galectin-3 = biological target: T2, galectin-3 (Homo sapiens, UniProt P17931); experiment: competitive fluorescence polarization assay, galectin-3; conditions: Kd and SEM from 3–6 single point measurements, > values estimated, no apparent binding at highest concentration, read-out: Dissociation constants, Galectin-3
T2 construct: made in house
T2 sequence (P17931 whole entry): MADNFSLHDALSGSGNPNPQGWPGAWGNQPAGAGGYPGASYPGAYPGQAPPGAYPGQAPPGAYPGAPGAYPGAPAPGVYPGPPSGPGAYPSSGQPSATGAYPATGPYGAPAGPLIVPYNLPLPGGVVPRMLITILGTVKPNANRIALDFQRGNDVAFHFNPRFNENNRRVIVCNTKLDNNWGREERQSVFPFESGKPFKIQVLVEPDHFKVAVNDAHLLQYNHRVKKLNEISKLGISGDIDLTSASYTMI
Protocol: as §1, §2, §3, §4

galectin-4C = biological target: T3, galectin-4C (Homo sapiens, UniProt P56470); experiment: competitive fluorescence polarization assay, galectin-4C; format: binding; conditions: for Kd: fluorescence polarization, x/y cells = only two data points revealed inhibition, both shown, > values estimated, no apparent binding at highest concentration, read-out: Dissociation constants, Galectin-4C
T3 construct: made in house; host or cells: E. coli BL-21 (DE3)
T3 sequence (P56470 185-323): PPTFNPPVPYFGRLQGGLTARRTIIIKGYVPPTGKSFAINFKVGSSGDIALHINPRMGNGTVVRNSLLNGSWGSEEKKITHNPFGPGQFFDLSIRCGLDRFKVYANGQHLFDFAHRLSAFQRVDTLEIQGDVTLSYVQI
Protocol: Affinities of 1c–1z for galectin-1, -3, -4C, -4N, -7, -8C, -8N, -9C, and -9N were measured using an established fluorescence polarization assay[57] with reported probes and conditions.[19]
Recombinant human galectin-4 C-terminal carbohydrate recognition domain was expressed and purified as previously reported.[57,70] Briefly, BL-21 (DE3) E. coli cells containing galectin-4C (amino acid sequence 185–323) was expressed, lysed by sonication and purified by affinity chromatography on a lactosyl-Sepharose column. Galectin-4C protein was eluted using 50 mM β-lactose in PBS, pH 7.4. Galectin-4C was then further gel purified using a Superdex 200/60 column (GE Healthcare) previously equilibrated in PBS, pH 7.4. The peak fractions collected containing galectin-4C were pooled and concentrated to 6.5 mg mL^−1 using an AmiconUltra 3K molecular weight cut-off centrifugal concentrator (Millipore, Billerica, MA, USA) and used directly in crystallisation studies. […]
as §4

galectin-4N = biological target: T4, galectin-4N (Homo sapiens, UniProt P56470); experiment: competitive fluorescence polarization assay, galectin-4N; format: binding; conditions: Kd and SEM from 3–6 single point measurements, read-out: Dissociation constants, Galectin-4N
T4 construct: called “N” for the N-terminal CRD and “C” for the C-terminal
T4 sequence (P56470 19-150 limits assumed): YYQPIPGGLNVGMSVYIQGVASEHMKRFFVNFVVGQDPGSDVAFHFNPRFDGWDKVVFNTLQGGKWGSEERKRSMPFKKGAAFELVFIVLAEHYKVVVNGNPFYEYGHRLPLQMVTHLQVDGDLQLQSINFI
Protocol: as §1, §4

Row | SMILES | Kd (galectin-1) | Kd (galectin-3) | fold better galectin-4C affinity compared to 1a–b (galectin-4C; effect of adding the C3 phenyltriazolyl) | Kd (galectin-4C) | Kd (galectin-4N) | fold stronger affinity for galectin-4C compared to galectin-1 and galectin-3 (galectin-4C; ratio of Kd) | galectin-4C selectivity over other galectins (galectin-4C; ratio of Kd)
1 | OC[C@H]1O[C@@H](c2cn(-c3ccccn3)nn2)[C@H](O)[C@@H](n2cc(-c3ccccc3)nn2)[C@H]1O [Compound 16b, 1,3-Dideoxy-1-(1-(2-pyridyl)-1H-1,2,3-triazol-4-yl)-3-(4-(phenyl)-1H-1,2,3-triazolyl)-β-D-galactopyranosyl] | 180 ± 1 µM | 34 ± 3 µM | ≤ 79 fold | 9.6 ± 2.3 µM | 240 ± 54 µM |  | 
2 | OC[C@H]1O[C@@H](Cn2cc(-c3ccc(F)cc3)nn2)[C@H](O)[C@@H](n2cc(-c3ccccc3)nn2)[C@H]1O [Compound 24a] | 220 ± 10 µM | 200 ± 32 µM |  | 9.5 ± 1.3 µM | 130 ± 20 µM | 20 fold | twenty-onefold and up to thirty-sevenfold
3 | OC[C@H]1O[C@@H](Cn2cc(-c3ccc(C(F)(F)F)cc3)nn2)[C@H](O)[C@@H](n2cc(-c3ccccc3)nn2)[C@H]1O [Compound 24b, 1-((4-(1-Phenyl-1H-1,2,3-triazol-4-yl)-1,3-dideoxy-β-D-galactopyranosyl)methyl)-4-(4-(trifluoromethyl)phenyl)-1H-1,2,3-triazole] | 440 ± 68 µM | 720 ± 78 µM |  | 12 ± 1.7 µM | 760 ± 32 µM |  | twenty-onefold and up to thirty-sevenfold
4 | OC[C@H]1O[C@@H](Cn2cc(-c3ccccc3)nn2)[C@H](O)[C@@H](n2cc(-c3ccccc3)nn2)[C@H]1O [Compound 24c, 1-((4-(1-Phenyl-1H-1,2,3-triazol-4-yl)-1,3-dideoxy-β-D-galactopyranosyl)methyl)-4-phenyl-1H-1,2,3-triazole] | 140 ± 5 µM | 90 ± 13 µM |  | 19 ± 2.9 µM | 290 ± 32 µM |  | 
5 | OC[C@H]1O[C@@H](Cn2cc(-c3cc(F)c(F)c(F)c3)nn2)[C@H](O)[C@@H](n2cc(-c3ccccc3)nn2)[C@H]1O [Compound 24d] | 240 ± 5 µM | 91 ± 2 µM |  | 22 ± 2.8 µM | 130 ± 23 µM |  | 
